A short description of test [1]: Cytotoxicity against Spodoptera frugiperda Sf9 cells assessed as reduction in cell viability. Format: cell-based.
Test [2] is described as follows: Cytotoxicity against Aedes albopictus NIAS-AeAl-2 cells assessed as reduction in cell viability. Format: functional, cell-based.
The test system of another test is HL-60. The test can be described thus: Cytotoxicity against human HL60 cells assessed as reduction in cell viability. Format: functional, cell-based.
Test [3] in a line: Effect on 28s ribosomal RNA expression in Spodoptera frugiperda Sf9 cells. Type of test: functional.
Another test relates to Sf9. The test can be described thus: Induction of DNA degradation in Spodoptera frugiperda Sf9 cells by DNA ladder assay. Type of test: functional, cell-based.

This is an account of results in ChEMBL document CHEMBL4622859, “Discovery of stereospecific cytotoxicity of (8R,8'R)-trans-arctigenin against insect cells and structure-activity relationship on aromatic ring” (Bioorg Med Chem Lett, 2020).

As a reminder, the IC50 is the concentration at which inhibition is half-maximal.

Calls of active or inactive are those of the source. The calls are words filed in the database; no cut-off is given here.

In the case of `COc1ccc(C[C@H]2COC(=O)[C@@H]2Cc2ccc(C)c(C)c2)cc1OC`, the IC50 in test [1] worked out at 9.3 µM.

Turning to `COc1ccc(C[C@H]2COC(=O)[C@@H]2Cc2ccccc2F)cc1OC`, the IC50 in test [1] turned out to be 43 µM.

As to `COc1ccc(C[C@H]2C(=O)OC[C@@H]2Cc2ccc(OC)c(OC)c2)cc1`, the IC50 was 11 µM in test [1] and 4.3 µM in test [2].

Turning to `COc1ccc(C[C@@H]2COC(=O)[C@H]2Cc2ccc(O)cc2)cc1OC`, in test [1], the IC50 was found to be 29 µM.

Consider `O=C1OC[C@H](Cc2ccc3c(c2)OCO3)[C@H]1Cc1ccc(I)cc1`, for which the IC50 in test [1] stood at 12 µM.

As for `COc1ccc(C[C@H]2COC(=O)[C@@H]2Cc2cccc(C(F)(F)F)c2)cc1OC`, in test [1], the IC50 was determined as 19 µM.

For `Cc1ccccc1C[C@H]1COC(=O)[C@@H]1Cc1ccc(I)cc1`, in test [1], the IC50 turned out to be 21 µM.

As to `COc1ccc(C[C@H]2COC(=O)[C@@H]2Cc2cccc(O)c2)cc1OC`, in test [1], the IC50 was found to be 22 µM.

Regarding `COc1ccc(C[C@H]2COC(=O)[C@@H]2Cc2ccc3c(c2)OCO3)cc1OC` [(-)-KUSUNOKININ], the IC50 in test [1] stood at 8.2 µM; in test [2], 2.7 µM.

Take `COc1ccc(C[C@H]2COC(=O)[C@@H]2Cc2ccccc2I)cc1OC`: the IC50 in test [1] came to 18 µM.

Consider `COc1ccc(C[C@H]2C(=O)OC[C@@H]2Cc2ccc(OC)c(OC)c2)cc1O`, for which the IC50 in test [1] worked out at 19 µM.

As to `O=C1OC[C@H](Cc2ccc(C(F)(F)F)cc2)[C@H]1Cc1ccc(I)cc1`, the half-inhibitory concentration (IC50) in test [1] is 15 µM.

For `COc1ccc(C[C@@H]2C(=O)OC[C@H]2Cc2ccc(OC)c(OC)c2)cc1`, the IC50 in test [1] is 47 µM.

Turning to `COc1ccc(C[C@H]2COC(=O)[C@@H]2Cc2ccc(F)c(F)c2)cc1OC`, the IC50 in test [1] amounted to 64 µM; in test [2], 13 µM.

In the case of `COc1cccc(C[C@H]2C(=O)OC[C@@H]2Cc2ccc(OC)c(OC)c2)c1`, in test [1], the IC50 came out at 17 µM.

In the case of `COc1ccc(C[C@H]2COC(=O)[C@@H]2Cc2ccccc2C)cc1OC`, the IC50 in test [1] came out at 28 µM.

Turning to `O=C1OC[C@H](Cc2cccc(Cl)c2)[C@H]1Cc1ccc(I)cc1`, the IC50 in test [1] was found to be 27 µM.

On to `O=C1OC[C@H](Cc2cccc(O)c2)[C@H]1Cc1ccc(I)cc1`, for which the concentration for half-maximal inhibition (IC50) in test [1] was 18 µM.

`COc1ccc(C[C@H]2COC(=O)[C@@H]2Cc2ccc(O)cc2)cc1OC`: the IC50 in test [1] was 9.9 µM; in test [2] it was 1 µM.

Turning to `COc1ccc(C[C@@H]2COC(=O)[C@H]2Cc2ccc(I)cc2)cc1OC`, the half-maximal inhibitory concentration (IC50) in test [1] is 25 µM.

Take `Cc1cccc(C[C@H]2COC(=O)[C@@H]2Cc2ccc(I)cc2)c1`: the IC50 in test [1] turned out to be 24 µM.

Regarding `COc1ccc(C[C@H]2COC(=S)[C@@H]2Cc2ccc3c(c2)OCO3)cc1OC`, the IC50 in test [1] was 7.2 µM.

For the molecule `COc1ccc(C[C@@H]2COC(=O)[C@H]2Cc2ccc(Cl)cc2)cc1OC`, in test [1], the IC50 turned out to be 40 µM.

For `COc1ccc(C[C@H]2COC(=S)[C@@H]2Cc2cc(F)c(F)c(F)c2)cc1OC`, the IC50 in test [1] amounted to 22 µM; in test [2] it was 15 µM.

Consider `COc1ccc(C[C@H]2COC(=O)[C@@H]2Cc2cccc(C)c2)cc1OC`, for which the IC50 in test [1] was 12 µM.

Turning to `COc1ccc(C[C@H]2COC(=O)[C@@H]2Cc2ccc(Cl)c(Cl)c2)cc1OC`, the 50% inhibitory concentration (IC50) in test [1] worked out at 25 µM.

In the case of `COc1ccc(C[C@H]2COC(=O)[C@@H]2Cc2cccc(Cl)c2)cc1OC`, in test [1], the IC50 was 17 µM.

For the molecule `O=C1OC[C@H](Cc2ccccc2F)[C@H]1Cc1ccc(I)cc1`, the IC50 in test [1] worked out at 20 µM.

Consider `COc1ccc(C[C@H]2COC(=O)[C@@H]2Cc2ccc(I)cc2)cc1OC`, for which the values for the IC50 in test [1] and in test [2] were 6.3 µM and 2.9 µM, respectively.

Consider `COc1ccc(C[C@@H]2COC(=O)[C@H]2Cc2ccc(C)cc2)cc1OC`, for which the IC50 in test [1] was determined as 42 µM.

Consider `COc1ccc(C[C@H]2COC(=O)[C@@H]2Cc2ccc(I)cc2)cc1O`, for which the IC50 in test [1] stood at 21 µM.

On to `COc1ccc(C[C@H]2COC(=O)[C@@H]2Cc2ccc(OC)c(OC)c2)cc1OC`, for which the IC50 in test [1] came out at 15 µM.

As for `O=C1OC[C@H](Cc2ccccc2)[C@H]1Cc1ccc(I)cc1`, in test [1], the IC50 was determined as 24 µM.

`O=C1OC[C@H](Cc2ccc(O)cc2)[C@H]1Cc1ccc(I)cc1`: the IC50 in test [1] was found to be 21 µM.

For the molecule `COc1ccc(C[C@H]2COC(=O)[C@@H]2Cc2cccc(F)c2)cc1OC`, the IC50 in test [1] was found to be 23 µM.

`COc1cc(C[C@H]2C(=O)OC[C@@H]2Cc2ccc(OC)c(OC)c2)ccc1O` [ARCTIGENIN]: the IC50 in test [1] worked out at 6.7 µM; with HL-60 it was 13 µM; in test [2], 0.73 µM. For the same molecule, the result in test [3] was Active. Besides, the result with Sf9 was inactive.

Turning to `COc1ccc(C[C@H]2COC(=O)[C@@H]2Cc2ccc(O)c(C)c2)cc1OC`, in test [1], the IC50 came out at 11 µM.

As to `COc1ccc(C[C@@H]2COC(=O)[C@H]2Cc2ccc3c(c2)OCO3)cc1OC`, the concentration for half-maximal inhibition (IC50) in test [1] was 41 µM.

Turning to `O=C1OC[C@H](Cc2ccc(Cl)cc2)[C@H]1Cc1ccc(I)cc1`, in test [1], the IC50 was 18 µM.

Turning to `COc1ccc(C[C@H]2COC(=O)[C@@H]2Cc2ccccc2C(F)(F)F)cc1OC`, the IC50 in test [1] was determined as 25 µM.

For the molecule `O=C1OC[C@H](Cc2ccc(F)cc2)[C@H]1Cc1ccc(I)cc1`, the IC50 in test [1] is 22 µM.

Turning to `O=C1OC[C@H](Cc2ccc3c(c2)OCCO3)[C@H]1Cc1ccc(I)cc1`, the IC50 in test [1] was found to be 10 µM.

Take `CCc1ccc(C[C@H]2C(=O)OC[C@@H]2Cc2ccc(OC)c(OC)c2)cc1`: the IC50 in test [1] was determined as 17 µM.

Take `COc1ccc(C[C@H]2COC(=O)[C@@H]2Cc2ccccc2O)cc1OC`: the IC50 worked out at 54 µM in test [1] and 17 µM in test [2].

With `O=C1OC[C@H](Cc2cccc(C(F)(F)F)c2)[C@H]1Cc1ccc(I)cc1`, in test [1], the IC50 came out at 19 µM.

`COc1ccc(C[C@H]2COC(=S)[C@@H]2Cc2ccccc2C)cc1OC`: the IC50 in test [1] was 19 µM.

In the case of `Cc1ccc(C[C@H]2COC(=O)[C@@H]2Cc2ccc(I)cc2)cc1`, in test [1], the IC50 amounted to 20 µM.

With `COc1ccc(C[C@H]2COC(=O)[C@@H]2Cc2cc(OC)c(O)c(OC)c2)cc1OC`, in test [1], the IC50 worked out at 9.1 µM.

For the molecule `O=C1OC[C@H](Cc2ccccc2Cl)[C@H]1Cc1ccc(I)cc1`, in test [1], the half-maximal inhibitory concentration (IC50) came out at 21 µM.

`O=C1OC[C@H](Cc2ccccc2C(F)(F)F)[C@H]1Cc1ccc(I)cc1`: the concentration for half-maximal inhibition (IC50) in test [1] was found to be 24 µM.

In the case of `COc1cccc(C[C@H]2COC(=O)[C@@H]2Cc2ccc(I)cc2)c1`, the IC50 in test [1] was found to be 15 µM.

Take `COc1cc(C[C@@H]2C(=O)OC[C@H]2Cc2ccc(OC)c(OC)c2)ccc1O`: the IC50 in test [1] worked out at 80 µM; in the test with HL-60, 23 µM; in test [2] it was 28 µM. The outcome in test [3] was Active.

For `COc1ccccc1C[C@H]1C(=O)OC[C@@H]1Cc1ccc(OC)c(OC)c1`, the IC50 in test [1] turned out to be 24 µM.

With `O=C1OC[C@H](Cc2cccc(F)c2)[C@H]1Cc1ccc(I)cc1`, in test [1], the IC50 stood at 22 µM.

As for `COc1ccc(C[C@H]2COC(=O)[C@@H]2Cc2cccc3c2OCO3)cc1OC`, the IC50 in test [1] is 46 µM.

`COc1ccc(C[C@H]2COC(=O)[C@@H]2Cc2ccc(C)cc2)cc1OC`: the IC50 is 11 µM in test [1] and 3.5 µM in test [2].

Take `COc1cc(C[C@H]2C(=O)OC[C@H]2Cc2ccc(OC)c(OC)c2)ccc1O`: the IC50 in test [1] is above 100 µM; in the test with HL-60 it was 13 µM; in test [2] it was 57 µM.

Take `COc1ccc(C[C@H]2COC(=O)[C@@H]2Cc2ccc(Cl)cc2)cc1OC`: the figures for the IC50 in test [1] and in test [2] were 10 µM and 2.3 µM, respectively.

`O=C1OC[C@H](Cc2ccccc2O)[C@H]1Cc1ccc(I)cc1`: the IC50 in test [1] was 18 µM.

Turning to `COc1ccc(C[C@H]2COC(=O)[C@@H]2Cc2ccc(I)cc2)cc1`, the IC50 in test [1] was 21 µM.

Consider `COc1ccc(C[C@H]2COC(=O)[C@@H]2Cc2ccc(C(F)(F)F)cc2)cc1OC`, for which the IC50 in test [1] is 20 µM; in test [2], 10 µM.

For `COc1ccc(C[C@H]2COC(=O)[C@@H]2Cc2ccc(F)cc2)cc1OC`, the IC50 is 28 µM in test [1] and 8.3 µM in test [2].

On to `COc1ccc(C[C@H]2COC(=S)[C@@H]2Cc2ccc(I)cc2)cc1OC`, for which the figures for the IC50 in test [1] and in test [2] were 4.7 µM and 2.4 µM, respectively.

Turning to `COc1cc(C[C@H]2COC(=O)[C@@H]2Cc2ccc(I)cc2)ccc1O`, in test [1], the IC50 turned out to be 19 µM.

Consider `COc1ccc(C[C@H]2COC(=O)[C@@H]2Cc2ccc(C(C)(C)C)cc2)cc1OC`, for which the IC50 in test [1] was 17 µM.

Take `COc1ccccc1C[C@H]1COC(=O)[C@@H]1Cc1ccc(I)cc1`: the IC50 in test [1] was 22 µM.

`COc1ccc(C[C@H]2COC(=O)[C@@H]2Cc2cc(F)c(F)c(F)c2)cc1OC`: the 50% inhibitory concentration (IC50) in test [1] turned out to be 44 µM.

On to `COc1ccc(C[C@H]2COC(=O)[C@@H]2Cc2ccc3c(c2)OCCO3)cc1OC`, for which the IC50 in test [1] stood at 15 µM.

Consider `COc1ccc(C[C@H]2COC(=O)[C@@H]2Cc2ccccc2)cc1OC`, for which the IC50 in test [1] came out at 19 µM.

With `COc1cc(C[C@@H]2C(=O)OC[C@@H]2Cc2ccc(OC)c(OC)c2)ccc1O`, the 50% inhibitory concentration (IC50) in test [1] amounted to 13 µM; with HL-60 it was 8.5 µM; in test [2], 6.3 µM.

Regarding `COc1ccc(C[C@H]2COC(=O)[C@@H]2Cc2cccc(I)c2)cc1OC`, in test [1], the IC50 turned out to be 5.4 µM.

Take `COc1ccc(C[C@H]2COC(=O)[C@@H]2Cc2ccc(O)c(O)c2)cc1OC`: in test [1], the concentration for half-maximal inhibition (IC50) is 10 µM.

Turning to `COc1ccc(C[C@H]2COC(=O)[C@@H]2Cc2ccc(Br)cc2)cc1OC`, in test [1], the 50% inhibitory concentration (IC50) was found to be 9.1 µM.

For the molecule `COc1ccc(C[C@H]2COC(=O)[C@@H]2Cc2ccccc2Cl)cc1OC`, in test [1], the IC50 stood at 24 µM.
